Measured values: PubChem BioAssay (NCI)
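Cultured in 96-well plates, cells were exposed to test compound for 48 hours across five concentrations. GI50 = concentration required for 50% inhibition of growth. At the TGI there is no net growth.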

What was measured:
Test in all cases: NCI-60 cell line screen, 48 h
NCI-H23 lung = tested on: NCI-H23 lung
EKVX NSCLC = tested on: EKVX NSCLC
OVCAR-4 ovarian = tested on: OVCAR-4 ovarian
SF-539 CNS = tested on: SF-539 CNS
NCI-H226 lung = tested on: NCI-H226 lung
SNB-19 CNS = tested on: SNB-19 CNS
SW-620 colon = tested on: SW-620 colon
RPMI-8226 leukemia = tested on: RPMI-8226 leukemia
SK-MEL-28 melanoma = tested on: SK-MEL-28 melanoma
786-0 renal = tested on: 786-0 renal
LOX IMVI melanoma = tested on: LOX IMVI melanoma
KM12 colon = tested on: KM12 colon
MOLT-4 leukemia = tested on: MOLT-4 leukemia
SK-OV-3 ovarian = tested on: SK-OV-3 ovarian
HL-60(TB) leukemia = tested on: HL-60(TB) leukemia
PC-3 prostate = tested on: PC-3 prostate
MDA-N = tested on: MDA-N
NCI/ADR-RES ovarian = tested on: NCI/ADR-RES ovarian
HS 578T breast = tested on: HS 578T breast

Work on `CCCCNC(=O)C1C2CCC(O2)C1C(=O)O` (centres undefined) yielded a TGI (NCI-H23 lung) greater than 100 µM, a TGI (EKVX NSCLC) of 65.6 µM and a TGI (OVCAR-4 ovarian) greater than 100 µM. For the same molecule, the TGI (SF-539 CNS) was 39.6 µM, the TGI (NCI-H226 lung) was 35.3 µM and the TGI (SNB-19 CNS) was 58.7 µM. For the same molecule, the TGI (SW-620 colon) was 10.6 µM, the TGI (RPMI-8226 leukemia) was 42 µM and the TGI (SK-MEL-28 melanoma) was 76.1 µM. The TGI (786-0 renal) was 31.5 µM, the TGI (LOX IMVI melanoma) was 34.7 µM and the TGI (KM12 colon) was greater than 100 µM. It also gave a TGI (MOLT-4 leukemia) of 40.4 µM and a TGI (SK-OV-3 ovarian) of 53.7 µM.

`COc1ccc(/C(=C/n2ccnc2)C(O)c2ccc(OC)c(OC)c2)cc1OC` (centres undefined) gave a TGI (NCI-H23 lung) greater than 100 µM, a TGI (OVCAR-4 ovarian) greater than 100 µM and a TGI (SF-539 CNS) greater than 100 µM. It also gave a TGI (NCI-H226 lung) greater than 100 µM, a TGI (SNB-19 CNS) greater than 100 µM and a TGI (SW-620 colon) greater than 100 µM. For the same molecule, the TGI (RPMI-8226 leukemia) was greater than 100 µM, the TGI (HL-60(TB) leukemia) was greater than 100 µM and the TGI (SK-MEL-28 melanoma) was greater than 100 µM. The TGI (786-0 renal) was greater than 100 µM, the TGI (LOX IMVI melanoma) was greater than 100 µM and the TGI (KM12 colon) was greater than 100 µM. The TGI (MOLT-4 leukemia) was greater than 100 µM and the TGI (SK-OV-3 ovarian) was greater than 100 µM.

With `O=C(O)[C@H](Cc1ccccc1)NCCN1CCC[C@H]1C(=O)O` the TGI (NCI-H23 lung) was greater than 100 µM, the TGI (PC-3 prostate) was greater than 100 µM and the TGI (OVCAR-4 ovarian) was greater than 100 µM. For the same molecule, the TGI (SF-539 CNS) was greater than 100 µM, the TGI (SNB-19 CNS) was greater than 100 µM and the TGI (SW-620 colon) was greater than 100 µM. It also gave a TGI (RPMI-8226 leukemia) greater than 100 µM, a TGI (SK-MEL-28 melanoma) greater than 100 µM and a TGI (MDA-N) greater than 100 µM. It also gave a TGI (786-0 renal) greater than 100 µM, a TGI (KM12 colon) greater than 100 µM and a TGI (MOLT-4 leukemia) greater than 100 µM. The TGI (NCI/ADR-RES ovarian) was greater than 100 µM and the TGI (SK-OV-3 ovarian) was greater than 100 µM.

`C=C1C(OC(=O)/C=C/c2ccccc2)CC(OC(C)=O)C2(C)C1CC1CC(OC(C)=O)C(C)=C(C(OC(C)=O)C2OC(C)=O)C1(C)C` (centres undefined) showed a TGI (SF-539 CNS) greater than 100 µM, a TGI (NCI-H226 lung) greater than 100 µM and a TGI (SNB-19 CNS) greater than 100 µM. The TGI (SW-620 colon) was greater than 100 µM, the TGI (RPMI-8226 leukemia) was greater than 100 µM and the TGI (786-0 renal) was greater than 100 µM. The TGI (LOX IMVI melanoma) was greater than 100 µM, the TGI (KM12 colon) was greater than 100 µM and the TGI (MOLT-4 leukemia) was greater than 100 µM. For the same molecule, the TGI (SK-OV-3 ovarian) was greater than 100 µM.

With `COc1cc2c(cc1OC)CC1c3cc(OC)c(OC)cc3CCN1CC2` (centres undefined) the TGI (NCI-H23 lung) was 68 µM, the TGI (PC-3 prostate) was greater than 100 µM and the TGI (EKVX NSCLC) was greater than 100 µM. For the same molecule, the TGI (OVCAR-4 ovarian) was greater than 100 µM, the TGI (SF-539 CNS) was greater than 100 µM and the TGI (NCI-H226 lung) was greater than 100 µM. The TGI (SNB-19 CNS) was 76.2 µM, the TGI (SW-620 colon) was greater than 100 µM and the TGI (RPMI-8226 leukemia) was greater than 100 µM. For the same molecule, the TGI (HL-60(TB) leukemia) was greater than 100 µM, the TGI (SK-MEL-28 melanoma) was greater than 100 µM and the TGI (786-0 renal) was greater than 100 µM. For the same molecule, the TGI (KM12 colon) was greater than 100 µM, the TGI (MOLT-4 leukemia) was greater than 100 µM and the TGI (NCI/ADR-RES ovarian) was greater than 100 µM. It also gave a TGI (HS 578T breast) greater than 100 µM and a TGI (SK-OV-3 ovarian) greater than 100 µM.

`CCOC(OCC)N1C(=O)C2(C(OCC)OCC)CC3C(OC(=O)N3N)c3cccc1c32` (centres undefined) gave a TGI (NCI-H23 lung) greater than 100 µM, a TGI (EKVX NSCLC) greater than 100 µM and a TGI (OVCAR-4 ovarian) greater than 100 µM. It also gave a TGI (SF-539 CNS) greater than 100 µM, a TGI (NCI-H226 lung) greater than 100 µM and a TGI (SNB-19 CNS) greater than 100 µM. It also gave a TGI (SW-620 colon) greater than 100 µM, a TGI (RPMI-8226 leukemia) greater than 100 µM and a TGI (HL-60(TB) leukemia) greater than 100 µM. It also gave a TGI (SK-MEL-28 melanoma) greater than 100 µM, a TGI (MDA-N) greater than 100 µM and a TGI (786-0 renal) greater than 100 µM. For the same molecule, the TGI (LOX IMVI melanoma) was greater than 100 µM, the TGI (KM12 colon) was greater than 100 µM and the TGI (MOLT-4 leukemia) was greater than 100 µM. It also gave a TGI (NCI/ADR-RES ovarian) greater than 100 µM and a TGI (SK-OV-3 ovarian) greater than 100 µM.

For `O=c1cc(-c2ccco2)[nH]c2cc3c(cc12)OCO3`, the TGI (NCI-H23 lung) was greater than 100 µM, the TGI (EKVX NSCLC) was greater than 100 µM and the TGI (OVCAR-4 ovarian) was greater than 100 µM. The TGI (SF-539 CNS) was 75.5 µM, the GI50 (NCI-H226 lung) was 24.4 µM and the TGI (NCI-H226 lung) was greater than 100 µM. It also gave a TGI (SNB-19 CNS) greater than 100 µM, a TGI (SW-620 colon) greater than 100 µM and a TGI (RPMI-8226 leukemia) greater than 100 µM. The TGI (HL-60(TB) leukemia) was greater than 100 µM, the TGI (SK-MEL-28 melanoma) was greater than 100 µM and the TGI (786-0 renal) was greater than 100 µM. For the same molecule, the TGI (LOX IMVI melanoma) was greater than 100 µM and the TGI (MOLT-4 leukemia) was greater than 100 µM.

For `C#CCN(N=O)C(=O)NCCCCC(NC(C)=O)C(=O)NCc1ccccc1` (centres undefined), the TGI (NCI-H23 lung) was greater than 100 µM, the TGI (EKVX NSCLC) was greater than 100 µM and the TGI (OVCAR-4 ovarian) was greater than 100 µM. It also gave a TGI (SF-539 CNS) greater than 100 µM, a TGI (NCI-H226 lung) greater than 100 µM and a TGI (SNB-19 CNS) greater than 100 µM. For the same molecule, the TGI (SW-620 colon) was greater than 100 µM, the TGI (RPMI-8226 leukemia) was greater than 100 µM and the TGI (SK-MEL-28 melanoma) was greater than 100 µM. It also gave a TGI (786-0 renal) greater than 100 µM, a TGI (LOX IMVI melanoma) greater than 100 µM and a TGI (KM12 colon) greater than 100 µM. For the same molecule, the TGI (MOLT-4 leukemia) was greater than 100 µM and the TGI (SK-OV-3 ovarian) was greater than 100 µM.
